Measurements from patent publication US20190085289A1, “COMPOSITIONS AND METHODS FOR PATHOGEN INACTIVATION OF PLATELETS” (Cerus Corporation, priority 2017, published 2019).
Marks after values point to notes of the source that are not given here.

What was measured:
calicivirus FCV = experiment: FCV inactivation with 150 μM S-59 after pre-incubation in PAS/Plasma, plaque assay; assay type: cell-based, feline calicivirus (FCV); conditions: for Normalized FCV Log Inactivation/mL / FCV Log Inactivation/mL / FCV Titer, 3J TEST: S-59 ~150 μM, UVA ~3 J/cm^2; for Normalized FCV Log Inactivation/mL: normalized to the FCV pool titer; for FCV Log Inactivation/mL: vs 0J control of same time; for FCV Titer, 3J TEST: platelets in PAS/Plasma 65%/35%
Description: From the results of Examples 1 and 2, showing that amotosalen is stable in PAS and PAS/Plasma, an additional study was performed that evaluated the level of inactivation of the calicivirus FCV with S-59 after extended incubation in PAS/Plasma. In this study, platelets in PAS/Plasma (65%/35%) were pooled to approximately 1320 mL, with approximately 16×10^11 total platelets, and spiked with a stock of the calicivirus FCV at a 1:100 dilution. A sample was taken from the FCV-spiked platelet pool to determine initial titer. The FCV-spiked platelets were then split into 5 units, at approximately 260 mL each, with approximately 3.2×10^11 platelets per unit. Each unit was dosed with S-59 at approximately 150 μM concentration, which is the concentration used commercially in the INTERCEPT® Blood System for pathogen inactivation treatment. Following the addition of S-59, the platelet units were incubated for 0, 2, 4, 8 or 24 hr. A control sample was taken at each time point for virus titer determination and HPLC analysis of S-59 concentration pre-UVA treatment, followed by UVA light exposure at ˜3 J/cm^2 to complete the photochemical treatment process for all test samples. Following UVA treatment, the control and test samples were evaluated for inactivation of FCV using a standard virological plaque assay.

FCV = FCV inactivation with decreasing amounts of S-59 after pre-incubation, plaque assay; assay type: cell-based, feline calicivirus (FCV); conditions: for FCV titer after UVA: UVA ~3 J/cm^2; for FCV log inactivation: vs 0 hr control titer 5.84
Description: An additional study was performed to evaluate the level of FCV inactivation with decreasing amounts of S-59 after extended incubation (e.g., pre-incubation) in PAS/Plasma. In this study, platelets in PAS/Plasma (65%/35%) were spiked with a stock of FCV at a 1:100 dilution. The FCV-spiked platelets were then split into 16 separate test units. Each unit was dosed with S-59 at approximately 150 μM, 90 μM, 30 μM or 15 μM concentration. Following the addition of S-59 in one of four dosing groups, the platelet units in each dosing group were incubated for 0, 4, 8 or 24 hr prior to illumination. A control sample was taken from each unit for virus titer determination and HPLC analysis of S-59 concentration pre-UVA treatment, followed by UVA light exposure at ˜3 J/cm^2 for photochemical treatment of the test samples. Following UVA treatment, the control and test samples were evaluated for inactivation of FCV using a standard virological plaque assay. […] Control titer at 0 hr pool used for all log inactivation calculations (5.84 log/mL).

[1] = Stability of S-59 in InterSol PAS under ambient light (HPLC); assay type: physicochemical; conditions: for S-59 UV peak area (HPLC) / S-59 concentration (HPLC): 230 μM in InterSol PAS, room temp
Description: Initial studies evaluated stability of the pathogen inactivation compound amotosalen (S-59) that was formulated in a platelet additive solution (PAS). A 230 μM solution of psoralen compound S-59 (Irsch et al., Transfus Med Hemother, 38: 19-31 (2011)) was prepared in the commercially available PAS solution InterSol® (Fenwal Inc.) and maintained at room temperature under ambient light conditions. HPLC analysis was performed on samples at times listed in Table 1 for both S-59 and photoproducts. […] S-59 data are shown as both concentration (μM), as well as peak area (S-59 UV) for relative comparison to any photoproducts detected with HPLC (Table 1). Peak D and Peak E photoproducts also were observed by 22 hr and 72 hr, respectively, as well as process impurity decomposition product 4′-HMT, with peak area values indicated (Table 1).

[2] = S-59 15 μM, pre-incubation 0 hr
[3] = S-59 15 μM, pre-incubation 4 hr
[4] = S-59 15 μM, pre-incubation 8 hr
[5] = S-59 15 μM, pre-incubation 24 hr
[6] = S-59 30 μM, pre-incubation 0 hr
[7] = S-59 30 μM, pre-incubation 4 hr
[8] = S-59 30 μM, pre-incubation 8 hr
[9] = S-59 30 μM, pre-incubation 24 hr
[10] = S-59 90 μM, pre-incubation 0 hr
[11] = S-59 90 μM, pre-incubation 4 hr
[12] = S-59 90 μM, pre-incubation 8 hr
[13] = S-59 90 μM, pre-incubation 24 hr
[14] = S-59 150 μM, pre-incubation 0 hr
[15] = S-59 150 μM, pre-incubation 4 hr
[16] = S-59 150 μM, pre-incubation 8 hr
[17] = S-59 150 μM, pre-incubation 24 hr

Cc1oc2c(C)c3oc(=O)cc(C)c3cc2c1COCCN [S-59, 3-(2-aminoethoxymethyl)-2,5,9-trimethylfuro[3,2-g]chromen-7-one]
level of FCV inactivation (calicivirus FCV; S-59/PAS/Plasma incubated 2 or more hours prior to UVA exposure): below the limit of detection
Normalized FCV Log Inactivation/mL (calicivirus FCV; pre-incubation T = 0 hr): 1.4 Log/mL
FCV Log Inactivation/mL (calicivirus FCV; pre-incubation T = 0 hr): 1.2 Log/mL
Normalized FCV Log Inactivation/mL (calicivirus FCV; pre-incubation T = 2 hr): >5.8 Log/mL
FCV Log Inactivation/mL (calicivirus FCV; pre-incubation T = 2 hr): >5.4 Log/mL
Normalized FCV Log Inactivation/mL (calicivirus FCV; pre-incubation T = 4 hr): >5.8 Log/mL
FCV Log Inactivation/mL (calicivirus FCV; pre-incubation T = 4 hr): >5.7 Log/mL
Normalized FCV Log Inactivation/mL (calicivirus FCV; pre-incubation T = 8 hr): >5.8 Log/mL
FCV Log Inactivation/mL (calicivirus FCV; pre-incubation T = 8 hr): >5.2 Log/mL
Normalized FCV Log Inactivation/mL (calicivirus FCV; pre-incubation T = 24 hr): >5.8 Log/mL
FCV Log Inactivation/mL (calicivirus FCV; pre-incubation T = 24 hr): >5.1 Log/mL
FCV Titer, 3J TEST (calicivirus FCV; pre-incubation T = 0 hr): 4.6 Log PFU/mL
FCV Titer, 3J TEST (calicivirus FCV; pre-incubation T = 2 hr): <0.22* Log PFU/mL
FCV Titer, 3J TEST (calicivirus FCV; pre-incubation T = 4 hr): <0.22* Log PFU/mL
FCV Titer, 3J TEST (calicivirus FCV; pre-incubation T = 8 hr): <0.22* Log PFU/mL
FCV Titer, 3J TEST (calicivirus FCV; pre-incubation T = 24 hr): <0.22* Log PFU/mL
FCV titer after UVA (FCV; [2]): 5.65 log PFU/mL
FCV log inactivation (FCV; [2]): 0.19 log/mL
FCV titer after UVA (FCV; [3]): 4.49 log PFU/mL
FCV log inactivation (FCV; [3]): 1.35 log/mL
FCV titer after UVA (FCV; [4]): 2.22 log PFU/mL
FCV log inactivation (FCV; [4]): 3.62 log/mL
FCV titer after UVA (FCV; [5]): 0.52 log PFU/mL
FCV log inactivation (FCV; [5]): 5.32 log/mL
FCV titer after UVA (FCV; [6]): 4.91 log PFU/mL
FCV log inactivation (FCV; [6]): 0.93 log/mL
FCV titer after UVA (FCV; [7]): 2.00 log PFU/mL
FCV log inactivation (FCV; [7]): 3.84 log/mL
FCV titer after UVA (FCV; [8]): <1.22 log PFU/mL
FCV log inactivation (FCV; [8]): 4.62 log/mL
FCV titer after UVA (FCV; [9]): <−0.22 log PFU/mL
FCV log inactivation (FCV; [9]): 5.62 log/mL
FCV titer after UVA (FCV; [10]): 4.90 log PFU/mL
FCV log inactivation (FCV; [10]): 0.94 log/mL
FCV titer after UVA (FCV; [11]): <0.22 log PFU/mL
FCV log inactivation (FCV; [11]): 5.62 log/mL
FCV titer after UVA (FCV; [12]): <−0.48 log PFU/mL
FCV log inactivation (FCV; [12]): 5.84 log/mL
FCV titer after UVA (FCV; [13]): <−0.30 log PFU/mL
FCV log inactivation (FCV; [13]): 5.84 log/mL
FCV titer after UVA (FCV; [14]): 4.33 log PFU/mL
FCV log inactivation (FCV; [14]): 1.51 log/mL
FCV titer after UVA (FCV; [15]): <0.22 log PFU/mL
FCV log inactivation (FCV; [15]): 5.62 log/mL
FCV titer after UVA (FCV; [16]): <−0.48 log PFU/mL
FCV log inactivation (FCV; [16]): 5.84 log/mL
FCV titer after UVA (FCV; [17]): <−0.48 log PFU/mL
FCV log inactivation (FCV; [17]): 5.84 log/mL
FCV inactivation (FCV; pre-incubation 4, 8 or 24 hours at 150 μM and 90 μM, 8 or 24 hours at 30 μM, 24 hours at 15 μM): greater than 4 logs
FCV inactivation (FCV; pre-incubation 4 hr, 30 μM S-59): ~4 logs
FCV inactivation (FCV; pre-incubation 8 hr, 15 μM S-59): greater than 3.5 logs
S-59 UV peak area (HPLC) ([1]; 5 hr): 3593.309
S-59 concentration (HPLC) ([1]; 5 hr): 230.62 µM
S-59 UV peak area (HPLC) ([1]; 6 hr): 3575.825
S-59 concentration (HPLC) ([1]; 6 hr): 229.50 µM
S-59 UV peak area (HPLC) ([1]; 22 hr): 3485.467
S-59 concentration (HPLC) ([1]; 22 hr): 223.71 µM
S-59 UV peak area (HPLC) ([1]; 30 hr): 3529.854
S-59 concentration (HPLC) ([1]; 30 hr): 226.56 µM
S-59 UV peak area (HPLC) ([1]; 47 hr): 3486.293
S-59 concentration (HPLC) ([1]; 47 hr): 223.76 µM
S-59 UV peak area (HPLC) ([1]; 56 hr): 3440.455
S-59 concentration (HPLC) ([1]; 56 hr): 220.82 µM
S-59 UV peak area (HPLC) ([1]; 72 hr): 3534.894
S-59 concentration (HPLC) ([1]; 72 hr): 226.88 µM
S-59 UV peak area (HPLC) ([1]; 78 hr): 3485.093
S-59 concentration (HPLC) ([1]; 78 hr): 223.69 µM
S-59 UV peak area (HPLC) ([1]; T 0): 3700.439
S-59 concentration (HPLC) ([1]; T 0): 237.49 µM
loss of S-59 ([1]; InterSol PAS, at 78 hours): < 6%
